# Results taken from US6869964B2, “Heterocyclicsulfonamide hepatitis C virus inhibitors” (Bristol-Myers Squibb Company, priority 2002, dated 2005).
# What was measured:
# [1] = target: T1, porcine pancreatic elastase (PPE) (Sus scrofa, UniProt P00772); test: Specificity assay, porcine pancreatic elastase; assay type: biochemical; settings: 2 hr enzyme-inhibitor pre-incubation
# T1 construct: porcine pancreatic elastase (PPE); from tissue; host or cells: porcine pancreas (from the enzyme's name only)
# Description: (§1) The specificities of compounds of the present invention were determined against a variety of serine proteases: human sputum elastase (HS), porcine pancreatic elastase (PPE) and human pancreatic chymotrypsin and one cysteine protease: human liver cathepsin B. In all cases a 96-well plate format protocol using colorimetric p-nitroaniline (pNA) substrate specific for each enzyme was used as described previously (CT 2633 application) with some modifications to the serine protease assays.
# (§2) Each assay included a 2 hr enzyme-inhibitor pre-incubation at RT followed by addition of substrate and hydrolysis to ˜30% conversion as measured on a Spectramax Pro microplate reader. Compound concentrations varied from 100 to 0.4 μM depending on their potency.
# The final conditions and protocol for the serine protease assays were: • 50 mM Tris(hydroxymethyl)aminomethane hydrochloride (Tris-HCl) pH8, • 0.5M Sodium Sulfate (Na2SO4), 50 mM NaCl, 0.1 mM EDTA, 3% DMSO, • 0.01% Tween-20 with: 133 μM succ-AAA-pNA and 20 nM HS or 8 nM PPE; 100 μM succ-AAPF-pNA and 250 pM Chymotrypsin.
# (§3) The percentage of inhibition was calculated using the formula: [1−((UVinh−UVblank)/(UVctl−UVblank))]×100
# (§4) A non-linear curve fit was applied to the inhibition-concentration data, and the 50% effective concentration (IC50) was calculated by the use of Excel Xl-fit software.
# [2] = target: T2, HCV NS3/4A protease complex (J4L6S strain) (Hepatitis C virus genotype 1b, UniProt O92972, C1454S/C1711G); test: Recombinant HCV NS3/4A protease complex FRET peptide assay, J4L6S strain; assay type: biochemical, HCV genotype 1b
# T2 construct: HCV NS3/4A protease complex (amino acids 1027 to 1711); inferred from pET21b vector and Ni-NTA purification; made in house; host or cells: Escherichia coli BL21 (DE3), pET21b
# Excerpt: (§5) Recombinant HCV NS3/4A Protease Complex FRET Peptide Assay
# (§6) The purpose of this in vitro assay was to measure the inhibition of HCV NS3 protease complexes, derived from the BMS, H77C or J4l6S strains, as described below, by compounds of the present invention. This assay provides an indication of how effective compounds of the present invention would be in inhibiting HCV proteolytic activity.
# (§7) Serum from an HCV-infected patient was obtained from Dr. T. Wright, San Francisco Hospital. An engineered full-length cDNA template of the HCV genome (BMS strain) was constructed from DNA fragments obtained by reverse transcription-PCR (RT-PCR) of serum RNA and using primers selected on the basis of homology between other genotype la strains. From the determination of the entire genome sequence, a genotype la was assigned to the HCV isolate according to the classification of Simmonds et al. (See P Simmonds, K A Rose, S Graham, S W Chan, F McOmish, B C Dow, E A Follett, P L Yap and H Marsden, J. Clin. Microbiol., 31(6), 1493-1503 (1993)). […]
# human liver cathepsin B = target: T3, human liver cathepsin B (Homo sapiens, UniProt P07858); test: Specificity assay, human liver cathepsin B; assay type: biochemical; settings: 2 hr enzyme-inhibitor pre-incubation; solubility issues at 100 μM
# T3 construct: one cysteine protease: human liver cathepsin B; from tissue; host or cells: human liver (from the enzyme's name only)
# Description: as §1, §2, §3, §4
# [3] = target: T4, HCV NS3/4A protease complex (H77C strain) (Hepatitis C virus genotype 1a, UniProt P27958, C1454S); test: Recombinant HCV NS3/4A protease complex FRET peptide assay, H77C strain; assay type: biochemical, HCV genotype 1a
# T4 construct: HCV NS3/4A protease complex (amino acids 1027 to 1711); inferred from pET21b vector and Ni-NTA purification; made in house; host or cells: Escherichia coli BL21 (DE3), pET21b
# Excerpt: as §5, §6, §7
# T1 sequence (P00772 27-266): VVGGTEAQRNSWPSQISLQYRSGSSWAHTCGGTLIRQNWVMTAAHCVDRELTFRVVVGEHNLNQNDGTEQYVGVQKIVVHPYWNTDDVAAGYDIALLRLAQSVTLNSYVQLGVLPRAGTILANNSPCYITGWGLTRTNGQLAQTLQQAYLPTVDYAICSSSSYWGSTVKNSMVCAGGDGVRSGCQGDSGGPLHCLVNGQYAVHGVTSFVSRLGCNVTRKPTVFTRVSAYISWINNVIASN
# T4 sequence (P27958 1027-1657 C1454S): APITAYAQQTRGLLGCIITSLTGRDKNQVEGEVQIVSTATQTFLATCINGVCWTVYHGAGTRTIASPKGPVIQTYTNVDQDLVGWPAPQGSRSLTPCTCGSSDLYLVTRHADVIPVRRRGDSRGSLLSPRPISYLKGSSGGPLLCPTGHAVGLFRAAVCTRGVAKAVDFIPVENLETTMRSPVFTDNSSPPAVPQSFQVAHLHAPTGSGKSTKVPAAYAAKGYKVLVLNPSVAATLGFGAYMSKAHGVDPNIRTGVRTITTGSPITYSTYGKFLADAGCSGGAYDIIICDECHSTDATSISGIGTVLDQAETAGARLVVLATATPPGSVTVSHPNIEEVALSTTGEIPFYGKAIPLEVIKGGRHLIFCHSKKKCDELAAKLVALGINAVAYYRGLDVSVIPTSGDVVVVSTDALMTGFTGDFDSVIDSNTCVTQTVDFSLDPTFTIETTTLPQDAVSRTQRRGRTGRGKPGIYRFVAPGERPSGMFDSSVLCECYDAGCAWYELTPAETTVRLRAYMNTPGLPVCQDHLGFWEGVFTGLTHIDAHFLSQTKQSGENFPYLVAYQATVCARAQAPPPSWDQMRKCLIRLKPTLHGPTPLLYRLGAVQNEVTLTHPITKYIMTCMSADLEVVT
# T4 sequence (P27958 1658-1711 partner, looked up, stated change not applied): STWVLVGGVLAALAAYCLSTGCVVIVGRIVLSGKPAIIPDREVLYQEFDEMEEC
# T2 sequence (O92972 1658-1711, stated change not applied): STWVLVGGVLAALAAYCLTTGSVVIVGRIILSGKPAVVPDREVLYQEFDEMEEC
# T2 sequence (O92972 1027-1711, looked up, stated change not applied): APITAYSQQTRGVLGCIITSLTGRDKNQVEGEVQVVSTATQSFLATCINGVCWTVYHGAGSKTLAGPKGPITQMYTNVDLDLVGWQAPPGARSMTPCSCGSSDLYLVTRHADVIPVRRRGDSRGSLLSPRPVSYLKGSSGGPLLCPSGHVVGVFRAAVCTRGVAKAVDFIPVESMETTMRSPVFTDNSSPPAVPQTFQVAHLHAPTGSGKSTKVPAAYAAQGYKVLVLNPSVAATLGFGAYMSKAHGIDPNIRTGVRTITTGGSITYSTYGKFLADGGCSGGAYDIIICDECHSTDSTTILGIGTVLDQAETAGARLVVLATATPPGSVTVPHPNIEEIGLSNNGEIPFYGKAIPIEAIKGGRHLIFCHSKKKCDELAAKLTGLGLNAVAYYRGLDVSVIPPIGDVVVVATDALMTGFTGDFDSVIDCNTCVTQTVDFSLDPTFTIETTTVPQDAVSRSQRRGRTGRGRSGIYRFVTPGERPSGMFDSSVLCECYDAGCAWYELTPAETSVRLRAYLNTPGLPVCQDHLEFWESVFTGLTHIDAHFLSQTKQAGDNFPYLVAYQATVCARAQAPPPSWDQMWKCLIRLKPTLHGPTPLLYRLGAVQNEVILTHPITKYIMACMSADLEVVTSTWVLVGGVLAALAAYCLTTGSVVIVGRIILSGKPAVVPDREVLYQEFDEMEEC
structure (smiles),measurement,setting,value
"C=CC1C[C@]1(NC(=O)[C@@H]1C[C@@H](Oc2cc(-c3ccccc3)nc3cc(OC)ccc23)CN1C(=O)[C@@H](NC(=O)OC(C)(C)C)C(C)(C)C)C(=O)NS(=O)(=O)c1cccs1 (stereo in doubt) [Compound 1, (1-{4-(7-Methoxy-2-phenylquinolin-4-yloxy)-2-[1-(thiophene-2-sulfonylaminocarbonyl)-2-vinyl-cyclopropylcarbamoyl]-pyrrolidine-1-carbonyl}-2,2-dimethylpropyl)carbamic acid tert-butyl ester]",IC50,[1],> 50000 nM
same,IC50,[2],1.6 nM
same,IC50,human liver cathepsin B,> 50000 nM
same,IC50,[3],2.2 nM
